pIC50: −log10 of the molar value.
What was measured:
Type in all cases: cell-based
[1] = system: MDA-MB-453; assay: Antiproliferation, CellTiter-Glo, 5 days, MDA-MB-453; settings: Homo sapiens, 120 h, MDA-MB-453, AR+ TNBC
Method: (§1) For MDA-MB-453, MFM-223, SUM159PT, MDA-MB-468, and HCC1937, 4,000, 3,000, 1,000, 3,000, and 3,000 cells were plated per well in 96-well microplates (Corning Inc), respectively. Cells were treated with serial dilutions of tested compounds with the maximum working concentration of 10 μM. Cell survival was measured 5 days later using a CellTiter-Glo luminescent cell viability assay kit (Promega Corporation). Luminescence was recorded by FLUOstar Omega microplate reader (BMG Labtech). Half maximal inhibitory concentration (IC50) was determined with GraphPad Prism using baseline correction (by normalizing to dimethyl sulfoxide (DMSO) control)

[2] = system: HCC1937; assay: Antiproliferation, CellTiter-Glo, 5 days, HCC1937; settings: Homo sapiens, 120 h, HCC1937, AR− TNBC
Method: as §1

[3] = molecular target: T1, Androgen Receptor (Homo sapiens, UniProt P10275); assay: AR degradation in AR positive TNBC cells, western blotting; settings: MDA-MB-453, SUM159PT and MFM-223 cells, 24 hours, up to 1 μM, western blot
T1 construct: endogenous in cells
T1 sequence (P10275 1-920): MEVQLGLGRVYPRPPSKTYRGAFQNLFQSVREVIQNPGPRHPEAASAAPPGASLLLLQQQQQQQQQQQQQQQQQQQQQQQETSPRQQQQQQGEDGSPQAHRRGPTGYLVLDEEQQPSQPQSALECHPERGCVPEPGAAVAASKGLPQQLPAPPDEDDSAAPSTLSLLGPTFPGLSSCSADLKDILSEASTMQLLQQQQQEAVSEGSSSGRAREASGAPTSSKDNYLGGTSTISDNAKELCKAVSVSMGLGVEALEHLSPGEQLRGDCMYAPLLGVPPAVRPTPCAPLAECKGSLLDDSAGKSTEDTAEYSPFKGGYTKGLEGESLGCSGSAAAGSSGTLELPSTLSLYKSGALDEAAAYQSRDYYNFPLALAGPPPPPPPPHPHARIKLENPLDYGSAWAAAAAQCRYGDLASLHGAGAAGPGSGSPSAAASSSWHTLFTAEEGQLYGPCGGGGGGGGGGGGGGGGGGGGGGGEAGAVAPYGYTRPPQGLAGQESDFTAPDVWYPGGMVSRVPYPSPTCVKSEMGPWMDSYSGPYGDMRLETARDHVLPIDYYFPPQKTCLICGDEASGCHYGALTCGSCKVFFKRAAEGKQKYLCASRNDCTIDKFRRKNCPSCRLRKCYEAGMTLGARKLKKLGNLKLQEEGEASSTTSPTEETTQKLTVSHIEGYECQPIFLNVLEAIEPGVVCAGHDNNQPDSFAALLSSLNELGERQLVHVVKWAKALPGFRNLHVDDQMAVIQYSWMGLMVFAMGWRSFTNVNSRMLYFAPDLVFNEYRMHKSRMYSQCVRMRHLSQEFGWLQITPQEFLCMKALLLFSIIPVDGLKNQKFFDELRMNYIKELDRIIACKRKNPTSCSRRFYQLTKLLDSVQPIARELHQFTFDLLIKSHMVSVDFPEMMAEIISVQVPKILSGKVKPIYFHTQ
Method: Cells were plated in 12-well microplates and incubated at 37° C. overnight for attachment. Cells were then treated for 24 hours with serial dilutions of tested compounds with the maximum working concentration of 1 μM. Cell lysate were subjected to the western blotting assay against AR antibody.
Primary antibodies: Androgen Receptor (D6F11) XP® Rabbit mAb; Anti-GAPDH Rabbit mAb; Secondary antibody: Goat Anti-Rabbit IgG H&L (HRP)

[4] = system: MDA-MB-453 cells; assay: Combination with chemotherapeutic drug Paclitaxel, proliferation of MDA-MB-453 cells, Combination Index; settings: molar ratio to Paclitaxel 20:1-5000:1, 7 days
Method: (§2) Triple negative breast cancer MDA-MB-453 cells in logarithmic growth stage were inoculated into a 96-well plate at a concentration of 4×10^3 cells/well, and then incubated in an incubator at 37° C., 5% CO2, and saturated humidity for 24 h. To the negative control wells, were added RPMI 1640 cell culture medium containing 10% fetal bovine serum in the same volume as the drug. After cultured for 24 h, to the 96-well plate, were sequentially added AR PROTACs compounds 279, 281, 282, ARV-110 and chemotherapeutic drug Paclitaxel, respectively.
(§3) After adding the drugs and co-incubating for 7 days, 10 μL of CCK-8 was added to each well, and then the plate was further cultured for 2 h. The absorbance value (OD) of each well was measured using a microplate reader at a wavelength of 450 nm. The survival rate was calculated using Prism software, the relative survival rate=(OD value of drug well/OD value of control well)×100%. Alternatively, 100 μL of medium was removed from each well, and then 50 μL of CTG was added. The plate was shaken in the dark for 2 min, allowed to stand for 10 min, and then measured using a microplate reader in Luminescence mode. Prism software was used to calculate the survival rate, the relative survival rate=(the RLU value of drug well/the RLU value of control well)×100%.

[5] = system: MDA-MB-453 cells; assay: Combination with PI3K inhibitor Duvelisib, proliferation of MDA-MB-453 cells, Combination Index; settings: molar ratio to Duvelisib 1:30-1:1.111, 7-10 days
Method: as §2, with “PI3K inhibitor Duvelisib,” for “chemotherapeutic drug Paclitaxel,”
as §3, with “7-10” for “7”

[6] = system: SUM159PT; assay: Antiproliferation, CellTiter-Glo, 5 days, SUM159PT; settings: Homo sapiens, SUM-159-PT, 120 h, AR+ TNBC
Method: as §1, with “Cells” for “For MDA-MB-453, MFM-223, SUM159PT, MDA-MB-468, and HCC1937, 4,000, 3,000, 1,000, 3,000, and 3,000 cells were plated per well in 96-well microplates (Corning Inc), respectively. Cells”

Row | Compound | pIC50 [1] | pIC50 [2] | AR degradation (words, FIG. 1) [3] | effect of the combination with Paclitaxel on inhibiting proliferation (CI<1 = synergistic) [4] | effect of the combination with Duvelisib on inhibiting proliferation (CI<1 = synergistic) [5] | pIC50 [6]
1 | N#Cc1ccc(O[C@H]2CC[C@H](NC(=O)c3cnc(N4CCC(CN5CCC6(CC5)CN(c5ccc7c(c5)C(=O)N(C5CCC(=O)NC5=O)C7=O)C6)CC4)nn3)CC2)cc1Cl (some centres unmarked) [Compound 279] | 6.85 | < 5.00 | superior degradation activity | synergistic effect | synergistic effect | 6.36
2 | N#Cc1ccc(O[C@H]2CC[C@H](NC(=O)c3ccc(N4CCC(CN5CCN(c6cc7c(cc6F)C(=O)N(C6CCC(=O)NC6=O)C7=O)CC5)CC4)nn3)CC2)cc1Cl (some centres unmarked) [ARV-110, reference compound] | 5.85 | < 5.00 |  | synergistic effect | synergistic effect | 5.80

From patent US20250082763A1, “COMBINATION DRUG FOR TREATING TRIPLE-NEGATIVE BREAST CANCER” (HINOVA PHARMACEUTICALS INC., priority 2022, published 2025)
